# Assay results from patent US12358999B2, “Protein recognizing drug moiety of antibody-drug conjugate” (DAIICHI SANKYO COMPANY, LIMITED, priority 2018, dated 2025).
# Counter-ions that a name gives are not always drawn.
# Key:
# [1] = tested on: mouse antibody 1A3; assay: Competitive inhibition with HER2-ADC (I), chemical structure recognized by mouse antibody 1A3 (Gyrolab); assay type: binding; details: compound 1 and 100 μg/mL dilution solutions; response at HER2-ADC (I) 250 ng/mL
# Source text: The chemical structure to be recognized by mouse antibody 1A3 was checked by competitive inhibition with HER2-ADC (I) using Gyrolab xP workstation (GYROS PROTEIN Technologies). As the compound for use in competitive inhibition, compound (1), compound (2), compound (7), compound (8), compound (9), compound (10), compound (11), Topotecan and Rubitecan were selected.
# As the capture reagent, mouse antibody 1A3 labeled with biotin by a labeling kit (ChromaLink Biotin Protein LABELING Kit, Solulink) was used. The concentration thereof was controlled to be 700 nM with 0.1% PS20-containing PBS. The compounds for use in competitive inhibition, compound (1), compound (2), compound (7), compound (8), compound (9), compound (10), compound (11), Topotecan and Rubitecan were separately dissolved in DMSO. The solutions each was diluted with 10% or 20% DMSO in Rexxip HN (GYROS PROTEIN Technologies) to prepare 0, 1 and 100 μg/mL dilution solutions. To each of them, the 700 nM mouse antibody 1A3 solution was added in an equal amount. The mixture was stirred and allowed to react at room temperature in a dark place for one hour or more. The concentration of HER2-ADC (I) was controlled with Rexxip HN to be 0, 0.244, 0.977, 3.91, 15.6, 62.5, 250 and 1000 ng/mL. As the detection reagent, Mouse Anti-(Anti-HER2 Ab) idiotype Ab (13C1) (IBL) was labeled by DyLight650 (registered trademark) labeling kit and put in use. The concentration thereof was controlled with Rexxip F (GYROS PROTEIN Technologies) to be 10 nM. The above solution was set at Gyrolab xP workstation and measurement was carried out by use of Gyrolab Bioaffy 200 at 200-3W-002-A (PMT5). The regression analysis was carried out by use of Gyrolab Evaluator 3.4.0.24 in 4-parametric logistic model (weight: Response). The calibration curve of HER2-ADC (I) was prepared per concentration of the competitive inhibition compound. The inhibition rate (%) was calculated by comparing the response at an HER2-ADC (I) concentration of 250 ng/mL to that of the case where no compound was added (concentration 0 ng/mL).
# [2] = biological target: T1, topoisomerase I (Homo sapiens, UniProt P11387); details: cited from earlier work
# T1 sequence (P11387 1-765): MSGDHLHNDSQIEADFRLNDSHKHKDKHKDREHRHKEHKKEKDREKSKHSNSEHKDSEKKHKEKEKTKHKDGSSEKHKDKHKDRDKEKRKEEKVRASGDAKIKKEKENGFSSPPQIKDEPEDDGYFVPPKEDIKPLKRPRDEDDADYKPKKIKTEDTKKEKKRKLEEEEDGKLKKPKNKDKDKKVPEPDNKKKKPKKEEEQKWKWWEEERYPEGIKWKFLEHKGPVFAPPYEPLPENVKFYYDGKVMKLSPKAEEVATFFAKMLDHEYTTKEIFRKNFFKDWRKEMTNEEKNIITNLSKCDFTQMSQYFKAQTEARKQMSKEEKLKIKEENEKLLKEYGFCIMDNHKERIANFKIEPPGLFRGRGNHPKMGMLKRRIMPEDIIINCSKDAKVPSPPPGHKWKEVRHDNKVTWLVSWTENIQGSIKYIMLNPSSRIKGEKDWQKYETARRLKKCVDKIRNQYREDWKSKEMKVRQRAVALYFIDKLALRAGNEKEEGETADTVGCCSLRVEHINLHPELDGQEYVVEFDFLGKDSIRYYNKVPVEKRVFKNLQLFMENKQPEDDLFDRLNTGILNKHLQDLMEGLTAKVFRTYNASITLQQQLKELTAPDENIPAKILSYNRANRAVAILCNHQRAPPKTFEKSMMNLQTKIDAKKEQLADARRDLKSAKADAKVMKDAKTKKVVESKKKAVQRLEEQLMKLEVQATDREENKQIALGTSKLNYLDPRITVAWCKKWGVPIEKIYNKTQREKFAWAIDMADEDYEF
# [3] = tested on: sera of BALB/c mice and BDF1 mice after immunization; assay: Inhibition ELISA of immunized mouse sera on immobilized antigen protein (2); assay type: binding; details: sera diluted 50000 fold; compound 12.5-100 μg/mL
# Description: To the sera of BALB/c mice (4 individuals) and BDF1 mice (4 individuals) after immunization through four administrations, compound (6), compound (7) and compound (1) as positive controls and compound (8) as a negative control were added and the unabsorption rate to antigen protein (2) was calculated. The mouse sera diluted to 50000 fold and compound (6), compound (8), compound (7) and compound (1), which were prepared to have a concentration of 12.5, 25, 50 and 100 μg/mL, were mixed and allowed to react at 4° C. overnight, and then, added to ELISA immunoplates having the antigen protein (2) immobilized thereon and allowed to react at 37° C. for 30 minutes. After washing, anti-mouse IgG-HRP was allowed to react at 37° C. for 30 minutes. After washing, an OPD solution was added. After termination of color development, absorbance at 490 nm was measured. The unabsorption rate was calculated in accordance with the following expression: Unabsorption rate(%)=(a/b)×100
# a: Absorbance of positive control or negative control at an addition concentration of 12.5 μg/mL
# b: Absorbance of a sample not containing positive control or a sample not containing a negative control
SMILES,"competitive inhibition of recognition of mouse antibody 1A3 to HER2-ADC (I) (inhibition rate, FIG. 41) [1]",topoisomerase I inhibitory activity [2],inhibition effect on binding of mouse sera to antigen protein (2) (unabsorption rate) [3]
CC[C@@]1(O)C(=O)OCc2c1cc1n(c2=O)Cc2cc3c([N+](=O)[O-])cccc3nc2-1 [Rubitecan],did not exhibit competitive inhibition,,
CC[C@@]1(O)C(=O)OCc2c1cc1n(c2=O)Cc2cc3c(CN(C)C)c(O)ccc3nc2-1 [Topotecan],did not exhibit competitive inhibition,,
"CC[C@@]1(O)C(=O)OCc2c1cc1n(c2=O)Cc2c-1nc1cc(F)c(C)c3c1c2[C@@H](N)CC3 [compound (1), (1S,9S)-1-amino-9-ethyl-5-fluoro-1,2,3,9,12,15-hexahydro-9-hydroxy-4-methyl-10H,13H-benzo[de]pyrano[3′,4′:6,7]indolizino[1,2-b]quinoline-10,13-dione, reference compound]",strong competitive inhibition,topoisomerase I inhibitory activity,high inhibition effect
"CC[C@@]1(O)C(=O)OCc2c1cc1n(c2=O)Cc2c-1nc1cc(F)c(C)c3c1c2[C@@H](NC(=O)CCCNC(=O)CCCCCCC(=O)ON1C(=O)CCC1=O)CC3 [compound (6), 8-[(2,5-dioxopyrrolidin-1-yl)oxy]-N-(4-{[(1S,9S)-9-ethyl-5-fluoro-9-hydroxy-4-methyl-10,13-dioxo-2,3,9,10,13,15-hexahydro-1H,12H-benzo[de]pyrano[3′,4′:6,7]indolizino[1,2-b]quinolin-1-yl]amino}-4-oxobutyl)-8-oxooctane Amide]",,,high inhibition effect
"CC[C@]1(O)c2cc3n(c(=O)c2COC1O)Cc1c-3nc2cc(F)c(C)c3c2c1[C@@H](NC(=O)CCCN)CC3 (stereo partly drawn) [compound (7), 4-amino-N-[(1S,9S)-9-ethyl-5-fluoro-9,10-dihydroxy-4-methyl-13-oxo-2,3,9,10,13,15-hexahydro-1H,12H-benzo[de]pyrano[3′,4′:6,7]indolizino[1,2-b]quinolin-1-yl] butanamide Trifluoroacetate]",strong competitive inhibition,,in some individuals have a high inhibition effect
"NCCCC(=O)NC1CCCCC1 [compound (8), 4-amino-N-cyclohexyl-butanamide Hydrochloride]",did not exhibit competitive inhibition,,"in none of the plasmas, a high inhibition effect"
CC[C@@]1(O)C(=O)OCc2c1cc1n(c2=O)Cc2c-1nc1ccc(C)c3c1c2CCC3 [compound (9)],strong competitive inhibition,,
CC[C@@]1(O)C(=O)OCc2c1cc1n(c2=O)Cc2c-1nc1cccc3c1c2C(N)CC3 (stereo partly shown) [compound (10)],did not exhibit competitive inhibition,,
CC[C@@]1(O)C(=O)OCc2c1cc1n(c2=O)Cc2c-1nc1cc(F)c(CO)c3c1c2[C@@H](N)CC3 [compound (11)],did not exhibit competitive inhibition,,
